For this experiment, the target named is DNA topoisomerase 2-alpha (Homo sapiens, UniProt P11388). The experiment can be described thus: Human Topoisomerase IIalpha Decatenation Inhibition Assay. Here is the method:
The samples were incubated for 15 minutes at 37° C. before the addition of 4 μL of a stop buffer containing 5% sarkosyl, 0.25% bromophenol blue, and 25% glycerol. The reactions were then analyzed by electrophoresis in 1% agarose gels containing […] ethidium bromide before being photographed under UV light.

pIC50: −log10 of the molar value.

DNA topoisomerase 2-alpha, sequence (P11388 whole entry): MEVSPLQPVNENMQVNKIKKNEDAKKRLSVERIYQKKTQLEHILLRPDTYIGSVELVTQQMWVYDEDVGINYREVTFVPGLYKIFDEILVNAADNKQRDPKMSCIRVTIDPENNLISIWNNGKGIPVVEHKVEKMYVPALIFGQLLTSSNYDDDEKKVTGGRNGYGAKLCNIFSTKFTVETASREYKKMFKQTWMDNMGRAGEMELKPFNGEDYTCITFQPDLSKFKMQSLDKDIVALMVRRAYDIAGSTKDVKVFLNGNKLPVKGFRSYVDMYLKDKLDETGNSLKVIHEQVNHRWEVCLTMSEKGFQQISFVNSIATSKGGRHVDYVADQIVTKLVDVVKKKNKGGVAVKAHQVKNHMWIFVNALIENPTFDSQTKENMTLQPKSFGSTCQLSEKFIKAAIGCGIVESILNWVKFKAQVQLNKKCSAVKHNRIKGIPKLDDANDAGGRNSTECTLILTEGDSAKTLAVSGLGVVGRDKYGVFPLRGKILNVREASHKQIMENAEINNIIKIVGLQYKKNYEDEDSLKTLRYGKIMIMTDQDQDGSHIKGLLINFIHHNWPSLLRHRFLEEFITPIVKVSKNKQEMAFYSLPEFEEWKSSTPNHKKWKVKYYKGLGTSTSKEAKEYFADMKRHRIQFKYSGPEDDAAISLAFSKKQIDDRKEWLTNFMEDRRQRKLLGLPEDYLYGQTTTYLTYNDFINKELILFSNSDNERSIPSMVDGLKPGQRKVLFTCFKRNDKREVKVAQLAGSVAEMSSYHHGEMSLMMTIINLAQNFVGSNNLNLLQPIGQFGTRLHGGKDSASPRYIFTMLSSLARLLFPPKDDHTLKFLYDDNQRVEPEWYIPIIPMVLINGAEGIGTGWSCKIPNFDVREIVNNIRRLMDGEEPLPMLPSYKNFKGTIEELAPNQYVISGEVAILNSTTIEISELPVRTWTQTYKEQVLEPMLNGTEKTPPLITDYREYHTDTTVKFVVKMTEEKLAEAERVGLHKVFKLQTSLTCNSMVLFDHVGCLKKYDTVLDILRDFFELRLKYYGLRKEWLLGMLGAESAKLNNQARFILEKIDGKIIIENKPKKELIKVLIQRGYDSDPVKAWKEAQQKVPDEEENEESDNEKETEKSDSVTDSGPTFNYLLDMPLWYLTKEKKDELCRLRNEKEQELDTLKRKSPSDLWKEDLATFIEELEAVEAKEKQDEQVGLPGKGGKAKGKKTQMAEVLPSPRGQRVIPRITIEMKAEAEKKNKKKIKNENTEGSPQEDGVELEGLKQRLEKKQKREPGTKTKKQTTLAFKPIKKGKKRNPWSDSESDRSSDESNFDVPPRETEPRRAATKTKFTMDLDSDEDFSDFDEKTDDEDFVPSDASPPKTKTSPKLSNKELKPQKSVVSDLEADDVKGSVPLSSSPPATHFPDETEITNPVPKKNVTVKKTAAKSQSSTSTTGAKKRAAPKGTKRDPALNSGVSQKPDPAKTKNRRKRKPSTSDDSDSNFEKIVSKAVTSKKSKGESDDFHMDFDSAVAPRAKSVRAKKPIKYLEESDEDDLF

As usually defined, the pIC50 is the IC50 on a negative log10 scale, so that one unit is a factor of ten. The low end stands for a large IC50, the high end for a small IC50. With `CN1CCN(c2c(F)cc3c(=O)c(C(=O)O)cn4c3c2Oc2cc(N)ccc2-4)CC1` [US10266550, Compound 11a], the pIC50 was 5.23. The result for `Nc1ccc2c(c1)Oc1c(N3CCNCC3)c(F)cc3c(=O)c(C(=O)O)cn-2c13` [US10266550, Compound 11b] reads 5.53; that for `N[C@H]1CCN(c2c(F)cc3c(=O)c(C(=O)O)cn4c3c2Oc2cc([N+](=O)[O-])ccc2-4)C1` [US10266550, Compound 16], 5.53.

Values taken from BindingDB's records for patent US10266550 (The Florida International University Board of Trustees, 2019).
